The source of these data is US20030039658A1, “MCEF, a novel transcription factor” (priority 2000, published 2003).

A short description of this series: Geldanamycin cytotoxicity. Type of series: cell-based.

Take `COC1=C2C[C@@H](C)C[C@H](OC)[C@H](O)[C@@H](C)/C=C(\C)[C@H](OC(N)=O)[C@@H](OC)/C=C\C=C(/C)C(=O)NC(=CC1=O)C2=O` [Geldanamycin]: the cytotoxicity result is recorded as “primarily the result of GA cytotoxicity”.
